From patent US20230346889A9, “TREATMENT OF ACUTE HEART FAILURE” (AnaCardio R&D AB, priority 2019, published 2023)
Marks after values point to notes of the source that are not given here.

How the values were obtained:
[1] = test system: patients with advanced CHF and reduced EF; assay: Trial serum and plasma biomarkers; format: in vivo, human
Experimental: Blood samples were collected in 1) morning fasting state baseline, 2) after standardized breakfast prior to intervention, 3) after 30 min infusion, 4) after 60 min infusion and 5) after 120 min infusion, 6) 30 min after completed infusion and 7) at follow-up 2-5 days later (FIG. 2). Blood was collected in ethylenediaminetetraacetic acid (EDTA) and serum tubes and immediately centrifuged and plasma and serum was aliquoted and stored in −70° C. until analysis.
Creatinine clearance was calculated according to the Cockcroft-Gault equation; ([140-age] * weight in kg*1.23)/creatinine*0.85 (if […]). Renal function was measured by creatinine and cystatin-C at Karolinska University Hospital core laboratory. NT-proBNP was analyzed by proBNPII (Roche Diagnostics, Bromma, Sweden). Plasma glucose measurements were from EDTA-containing whole venous blood tubes and analyzed with a photometric point-of-care technique, the HemoCue® Glucose 201 RT (Ängelholm, Sweden). Troponin T was analyzed in the Karolinska University Hospital core laboratory.

[2] = test system: patients with advanced CHF and reduced EF; assay: Trial QTc interval (12-lead ECG, Bazett); format: in vivo, human
Experimental: A plethysmographic based (finger-cuff) approach was used to measure blood pressure (Nexfin®, BMEYE B.V., Amsterdam, The Netherlands). Nexfin was also used for heart rate monitoring. Heart rate and blood pressure data were measured continuously, beat-by-beat, throughout the study protocol. The data was then averaged over 15 minutes following the Innocor measurements. In addition EKG was assessed before start of and during infusion at 60 and 120 minutes and after the ad lib lunch. QT intervals were measured in the precordial lead V5 in 12-lead surface ECGs, at 50 mm/sec paper speed and 10 mm/mV amplitude. Heart rate corrected QT intervals (QTc) were manually calculated with the Bazett formula, QTc=QT/RR^1/2, using the RR interval preceding the measured QT interval. The mean QTc from 3 heart beats was recorded.
The difference in change in heart rate between the groups was quantified. Bradycardia was defined as a reduction in heart rate of >15 beats per minute, to a heart rate <40 beats per minute, an increase in PQ time by >20 ms, or AV block II-III. In individual patients, tachycardia was defined as an increase in heart rate by >10 beats per minute or heart rate >110 beats per minute. Ventricular extraystoles were quantified and ventricular tachycardia was defined as non-sustained if ≥3 beats in a row up to ≤30 seconds, and sustained if >30 seconds. Supra-ventricular arrhythmia was defined as ectopic atrial tachycardia, atrial flutter or atrial fibrillation, or AV-nodal tachycardia of >3 seconds duration. Ghrelin may […] hERG channels and as such cause a prolongation of the QTc interval on the EKG, which theoretically could predispose to arrhythmia. Therefor we monitored QTc.

[3] = Baseline, bracketed range in line below
[4] = After infusion, prior to discharge

Question: With `CCCCCCCC(=O)OC[C@H](NC(=O)[C@H](CO)NC(=O)CN)C(=O)N[C@@H](Cc1ccccc1)C(=O)N[C@@H](CC(C)C)C(=O)N[C@@H](CO)C(=O)N1CCC[C@H]1C(=O)N[C@@H](CCC(=O)O)C(=O)N[C@@H](Cc1cnc[nH]1)C(=O)N[C@@H](CCC(N)=O)C(=O)N[C@@H](CCCNC(=N)N)C(=O)N[C@H](C(=O)N[C@@H](CCC(N)=O)C(=O)N[C@@H](CCC(N)=O)C(=O)N[C@@H](CCCNC(=N)N)C(=O)N[C@@H](CCCCN)C(=O)N[C@@H](CCC(=O)O)C(=O)N[C@@H](CO)C(=O)N[C@@H](CCCCN)C(=O)N[C@@H](CCCCN)C(=O)N1CCC[C@H]1C(=O)N1CCC[C@H]1C(=O)N[C@@H](C)C(=O)N[C@@H](CCCCN)C(=O)N[C@@H](CC(C)C)C(=O)N[C@@H](CCC(N)=O)C(=O)N1CCC[C@H]1C(=O)N[C@@H](CCCNC(=N)N)C(=O)O)C(C)C` [Ghrelin] as the compound, how does the ALAT ([1]; 2-5 days FU) read?
Answer: 0.31 ukat/L

Question: What about the ASAT ([1]; 2-5 days FU) of the same compound?
Answer: 0.42 ukat/L

Question: And the “Cystatin C” value ([1]; 2-5 days FU)?
Answer: 1.59 ± 0.52* mg/L

Question: What about the GT ([1]; 2-5 days FU) of the same compound?
Answer: 0.83 ukat/L

Question: What about the Haematocrit ([1]; 2-5 days FU) of the same compound?
Answer: 41 ± 5%

Question: What about the “INR among non-warfarin treated” value ([1]; 2-5 days FU) of the same compound?
Answer: 1.0

Question: And the “INR among warfarin treated” value ([1]; 2-5 days FU)?
Answer: 2.6

Question: And the “Insulin (non-fasting)” value ([1]; 2-5 days FU)?
Answer: 30 mlE/L

Question: And the NT-proBNP ([1]; 2-5 days FU)?
Answer: 2450* ng/L

Question: And the Potassium ([1]; 2-5 days FU)?
Answer: 4.3 ± 0.4 mmol/L

Question: What about the Sodium ([1]; 2-5 days FU) of the same compound?
Answer: 138 ± 12 mmol/L

Question: And the Triglycerides ([1]; 2-5 days FU)?
Answer: 1.6 mmol/L

Question: What about the “Troponin T” value ([1]; 2-5 days FU) of the same compound?
Answer: 31 ± 38 ng/L

Question: And the “White blood cell count” value ([1]; 2-5 days FU)?
Answer: 7.4 ± 2.0 109/L

Question: What about the hsCRP ([1]; 2-5 days FU) of the same compound?
Answer: 3.0 mg/L

Question: And the “NT-proBNP” value ([1]; 2-5 days after infusion)?
Answer: remained elevated

Question: And the ALAT ([1]; 30′ after infusion)?
Answer: 0.32 ukat/L

Question: What about the ASAT ([1]; 30′ after infusion) of the same compound?
Answer: 0.43 ukat/L

Question: And the “Cystatin C” value ([1]; 30′ after infusion)?
Answer: 1.54 ± 0.41 mg/L

Question: And the GT ([1]; 30′ after infusion)?
Answer: 0.82 ukat/L

Question: And the NT-proBNP ([1]; 30′ after infusion)?
Answer: 2820 ng/L

Question: And the “Troponin T” value ([1]; 30′ after infusion)?
Answer: 21 ± 10 ng/L

Question: What about the hsCRP ([1]; 30′ after infusion) of the same compound?
Answer: 3.5 mg/L

Question: And the “Cystatin C” value ([1]; Baseline)?
Answer: 1.45 ± 0.44 mg/L

Question: What about the “Troponin T” value ([1]; Baseline) of the same compound?
Answer: 21 ± 9 ng/L

Question: What about the ALAT ([1]; Baseline (Table 12)) of the same compound?
Answer: 0.31 ukat/L

Question: And the ASAT ([1]; Baseline (Table 12))?
Answer: 0.41 ukat/L

Question: And the “Cystatin C” value ([1]; Baseline (Table 12))?
Answer: 1.45 ± 10.44 mg/L

Question: And the GT ([1]; Baseline (Table 12))?
Answer: 0.77 ukat/L

Question: What about the Haematocrit ([1]; Baseline (Table 12)) of the same compound?
Answer: 40 ± 4%

Question: And the “INR among non-warfarin treated” value ([1]; Baseline (Table 12))?
Answer: 1.1

Question: What about the “INR among warfarin treated” value ([1]; Baseline (Table 12)) of the same compound?
Answer: 2.2

Question: What about the “Insulin (non-fasting)” value ([1]; Baseline (Table 12)) of the same compound?
Answer: 36 mlE/L

Question: And the NT-proBNP ([1]; Baseline (Table 12))?
Answer: 2080 ng/L

Question: And the Sodium ([1]; Baseline (Table 12))?
Answer: 139 ± 13 mmol/L

Question: And the Triglycerides ([1]; Baseline (Table 12))?
Answer: 1.4 mmol/L

Question: What about the “Troponin T” value ([1]; Baseline (Table 12)) of the same compound?
Answer: 21 ± 10 ng/L

Question: What about the “White blood cell count” value ([1]; Baseline (Table 12)) of the same compound?
Answer: 7.4 ± 1.9 109/L

Question: What about the hsCRP ([1]; Baseline (Table 12)) of the same compound?
Answer: 2.7 mg/L

Question: What about the ALAT [1, 3] of the same compound?
Answer: 0.31 ukat/L

Question: What about the ASAT [1, 3] of the same compound?
Answer: 0.41 ukat/L

Question: And the GT [1, 3]?
Answer: 0.77 ukat/L

Question: And the hsCRP [1, 3]?
Answer: 2.7 mg/L

Question: What about the NT-proBNP ([1]; Baseline, bracketed range in lines below) of the same compound?
Answer: 2080 ng/L

Question: What about the ALAT ([1]; Infusion + 30′) of the same compound?
Answer: 0.31 ukat/L

Question: What about the ASAT ([1]; Infusion + 30′) of the same compound?
Answer: 0.40 ukat/L

Question: What about the “Cystatin C” value ([1]; Infusion + 30′) of the same compound?
Answer: 1.46 ± 0.44 mg/L

Question: And the GT ([1]; Infusion + 30′)?
Answer: 0.78 ukat/L

Question: What about the NT-proBNP ([1]; Infusion + 30′) of the same compound?
Answer: 2220 ng/L

Question: And the “Troponin T” value ([1]; Infusion + 30′)?
Answer: 21 ± 9 ng/L

Question: What about the hsCRP ([1]; Infusion + 30′) of the same compound?
Answer: 3.0 mg/L

Question: What about the ALAT ([1]; Infusion + 60′) of the same compound?
Answer: 0.31 ukat/L

Question: What about the ASAT ([1]; Infusion + 60′) of the same compound?
Answer: 0.44 ukat/L

Question: What about the “Cystatin C” value ([1]; Infusion + 60′) of the same compound?
Answer: 1.55 ± 0.47* mg/L

Question: What about the GT ([1]; Infusion + 60′) of the same compound?
Answer: 0.79 ukat/L

Question: What about the NT-proBNP ([1]; Infusion + 60′) of the same compound?
Answer: 2340* ng/L

Question: What about the “Troponin T” value ([1]; Infusion + 60′) of the same compound?
Answer: 22 ± 10 ng/L

Question: What about the hsCRP ([1]; Infusion + 60′) of the same compound?
Answer: 3.0 mg/L

Question: What about the ALAT ([1]; Infusion + 120′) of the same compound?
Answer: 0.31 ukat/L

Question: What about the ASAT ([1]; Infusion + 120′) of the same compound?
Answer: 0.41 ukat/L

Question: And the “Cystatin C” value ([1]; Infusion + 120′)?
Answer: 1.57 ± 0.43* mg/L

Question: What about the GT ([1]; Infusion + 120′) of the same compound?
Answer: 0.80 ukat/L

Question: What about the NT-proBNP ([1]; Infusion + 120′) of the same compound?
Answer: 2630* ng/L

Question: And the “Troponin T” value ([1]; Infusion + 120′)?
Answer: 21 ± 10 ng/L

Question: What about the hsCRP ([1]; Infusion + 120′) of the same compound?
Answer: 3.3 mg/L

Question: And the “Cystatin C” value ([1]; during infusion)?
Answer: increased

Question: And the “NT-proBNP” value ([1]; during infusion)?
Answer: increased

Question: And the “Maximal QTc prolongation from baseline” value ([2]; 2-5 days after)?
Answer: +47 ms

Question: What about the “Median (interquartile range) changes in QTc from baseline” value (shortened to “Median (interquartile range) changes”) ([2]; 2-5 days after) of the same compound?
Answer: −4 (−34 to +4) ms

Question: And the “Maximal QTc prolongation from baseline” value [2, 4]?
Answer: +47 ms

Question: And the “Median (interquartile range) changes” value [2, 4]?
Answer: +18 (−10 to +30) ms

Question: And the “Maximal QTc prolongation from baseline” value ([2]; During infusion, 60 minutes)?
Answer: +36 ms

Question: And the “Median (interquartile range) changes” value ([2]; During infusion, 60 minutes)?
Answer: +4 (−7 to +21) ms

Question: What about the “Maximal QTc prolongation from baseline” value ([2]; During infusion, 120 minutes) of the same compound?
Answer: +45 ms

Question: And the “Median (interquartile range) changes” value ([2]; During infusion, 120 minutes)?
Answer: +8 (−4 to +26) ms

Question: What about the “change in QTc” value ([2]; in vivo) of the same compound?
Answer: nominal but not significant increase
